Where “and” joins values, the source holds several entries; their conditions need not be identical. Identical values can stand only once. Counter-ions that a name gives are not always drawn.
What was measured:
IRS2−/− female mice [1] = experiment: Ovulation study: phase of the estrous cycle by vaginal smears (Papanicolaou); format: in vivo, mouse; parameters: key to phase of the estrous cycle: A: anestrus; D: diestrus; P: proestrus; E: estrus; M: metestrus; details: for phase of the estrous cycle: individual IRS2−/− female mice, dihydrate
Description: (§1) 10 IRS2^−/− female mice of ages comprised between 6 and 8 weeks. 6 “wild-type” (IRS2^wt) male mice of ages comprised between 6 and 8 weeks.
(§2) The female and male mice were housed separately in normal conditions, i.e., 12-hour light/darkness cycle and controlled moisture and temperature. The animals were voluntarily fed (also named ad libitum) with a standard feed diet.
(§3) After a period of acclimation, the IRS2^−/− female mice were housed in groups of 4-6 mice/cage. Tungstate-free drinking water was administered to the animals during the pre-treatment phase (2 weeks).
(§4) Sodium tungstate was administered in the drinking water (ad libitum) by means of a 2 mg/ml solution of sodium tungstate dihydrate (marketed by Carlo Erba) in distilled water after the pre-treatment phase (day 0 of treatment) and up to 4 weeks before sacrificing the animals. The daily dose of sodium tungstate ingested by the mice is about 180 mg/kg of body weight.
During the pre-treatment period and during the first 3 weeks of treatment, vaginal smears were performed in 6 randomly chosen female mice on days −8; −5; −2; −1; 7; 8; 14; 15 and 22 to determine the phase of the estrous cycle they were in.
Between […] of saline solution was introduced into the vagina of the mice with a Pasteur pipette. The vaginal exudate was collected with the same pipette and deposited on a slide. Once air-dried, it was fixed and stained with the Papanicolaou technique.
The Papanicolaou technique comprises staining the vaginal smears fixed on the slide as follows: • 10 immersions in 50% v/v alcohol; • immersing in Harris hematoxylin solution for 3 minutes; • rinsing with running water; • 10 immersions in acid alcohol (1% hydrochloric acid); • rinsing with running water; • 10 immersions in 95% v/v alcohol; • immersing in OG-6 solution for 30 seconds; • 10 immersions in 96% v/v alcohol; • immersing in eosin solution for 1 minute; • 10 immersions in 96% v/v alcohol; • 10 immersions in 86% v/v alcohol; and • 10 immersions in xylol.
The preparations were analyzed by trained staff using a code in a single-blind manner to eliminate observer bias.
The samples were identified in the following phases: diestrus, proestrus, estrus, metestrus, anestrus or non-evaluable. The cyclicality of the four phases in periods of 4 to 6 days is an indicator of a normal estrous cycle, whereas the absence of this cyclicality and the persistence in anestrus, diestrus or proestrus phases are indicators of the absence of the estrous cycle.

IRS2−/− female mice [2] = experiment: Implantation and pregnancy study after mating with IRS2wt male mice; format: in vivo, mouse; details: for mean number of young/implanted embryos per female mouse pregnancy: treated IRS2−/− female mice
Description: as §1, §2, §3, §4
After the first three weeks of treatment, the IRS2^−/− female mice were housed in cages in pairs together with an IRS2^wt male mouse continuously.
The mice were observed daily in search of signs of pregnancy or birth. After 4 weeks, the male mice were exchanged between the cages and kept in said cages for another 4 weeks.
The administration of tungstate was maintained for the 8 weeks in which the male and female mice were housed together. After these 8 weeks, treatment was withdrawn and the male and female mice were housed together for 4 additional weeks.
After this period lapsed, the female mice were sacrificed and biopsied in search of indications of pregnancy.
After the mating period of the method in section B lapsed, the female mice were sacrificed and biopsied in search of indications of pregnancy.

[3] = Glycemia study (blood glucose after 6 hours of fasting, glucose sensor); format: in vivo, mouse; details: for glycemia, Average: average of 6 IRS2−/− female mice; for variation in glycemia during administration: first 12 days of treatment, IRS2−/− female mice; for variation in glycemia during administration / glycemia: dihydrate; for glycemia: individual IRS2−/− female mice
Experimental: (§5) 6 IRS2^−/− female mice of ages comprised between 6 and 8 weeks.
(§6) The female mice were housed in normal conditions, i.e., 12-hour light/darkness cycle and controlled moisture and temperature. The animals were voluntarily fed (also named ad libitum) with a standard feed diet.
(§7) After a period of acclimation, sodium tungstate was administered in the drinking water (ad libitum) by means of a 2 mg/ml solution of sodium tungstate dihydrate (marketed by Carlo Erba) in distilled water after the pre-treatment phase (day 0 of treatment) and for 12 days.
(§8) Body weight was monitored on day 0, 2, 5, 7, 9 and 12 of the treatment period, and after 6 hours of fasting on each of the aforementioned days blood glucose was determined by means of withdrawing blood from the tail vein and with a glucose sensor (Roche AccuTrend Glucose Sensor. Mannheim, Germany).

Body weight study = format: in vivo, mouse; details: for Body weight, Average: average of 6 IRS2−/− female mice; for variation in body weight during administration: first 12 days of treatment, IRS2−/− female mice; for variation in body weight during administration / Body weight: dihydrate; for Body weight: individual IRS2−/− female mice
Experimental: as §5, §6, §7, §8

[4] = system: female rats with streptozotocin-induced diabetes; details: cited from earlier work
[5] = system: women whose ovulation is irregular or absent; details: cited from earlier work
[6] = individual treated IRS2−/− female mice, dihydrate

O.O.[Na+].[Na+].[O]=[W](=[O])([O-])[O-] [sodium tungstate, sodium tungstate dihydrate]
phase of the estrous cycle (IRS2−/− female mice [1]; day 7 of treatment, 2 mg/ml in drinking water (about 180 mg/kg/day)): M and E (4×) and E-M | phase of the estrous cycle (IRS2−/− female mice [1]; day 8 of treatment, 2 mg/ml in drinking water): M and E-M (3×) and E (2×) | phase of the estrous cycle (IRS2−/− female mice [1]; day 14 of treatment, 2 mg/ml in drinking water): E and E-M (3×) and D | phase of the estrous cycle (IRS2−/− female mice [1]; day 15 of treatment, 2 mg/ml in drinking water): D and E (2×) and M (2×) and A | phase of the estrous cycle (IRS2−/− female mice [1]; day 22 of treatment, 2 mg/ml in drinking water): D (2×) and A (2×) and M and P | recovery of the estrous cycle, percentage of analyzed mice (IRS2−/− female mice [1]; infertile non-diabetic IRS2−/− female mice, on the seventh day of treatment): 100% | Pregnancy (IRS2−/− female mice [2]; individual treated IRS2−/− female mice, mated with IRS2wt males, dihydrate): YES | Number of implanted embryos or young born (embryos) (IRS2−/− female mice [2]; [6]): 7 embryos (3×) and 6 embryos | Number of implanted embryos or young born (young) (IRS2−/− female mice [2]; [6]): 8 young (2×) and 1 young and 3 young | pregnancy rate (IRS2−/− female mice [2]; treated IRS2−/− female mice (untreated 9%)): 80% | mean number of young/implanted embryos per female mouse pregnancy (IRS2−/− female mice [2]; dihydrate): about 5 | mean number of young/implanted embryos per female mouse pregnancy (IRS2−/− female mice [2]; listed as tungsten (VI) salt, dihydrate): 5 | glycemia, Average ([3]; Day 0 (start of treatment)): 128.17 mg/dL | glycemia, Average ([3]; Day 2): 117.33 mg/dL | glycemia, Average ([3]; Day 5): 122.33 mg/dL | glycemia, Average ([3]; Day 7): 118.83 mg/dL | glycemia, Average ([3]; Day 9): 125.17 mg/dL | glycemia, Average ([3]; Day 12): 118.83 mg/dL | variation in glycemia during administration [3]: no variations are observed | variation in glycemia during administration ([3]; listed as tungsten (VI) salt): does not modify | glycemia ([3]; Day 0 (start of treatment), 6 h fasting): 146 mg/dL and 129 mg/dL and 115 mg/dL and 126 mg/dL and 141 mg/dL and 112 mg/dL | glycemia ([3]; Day 2, 6 h fasting): 136 mg/dL and 128 mg/dL and 118 mg/dL and 110 mg/dL and 105 mg/dL and 107 mg/dL | glycemia ([3]; Day 5, 6 h fasting): 125 mg/dL and 142 mg/dL and 114 mg/dL and 111 mg/dL and 137 mg/dL and 105 mg/dL | glycemia ([3]; Day 7, 6 h fasting): 140 mg/dL and 110 mg/dL and 106 mg/dL and 89 mg/dL and 133 mg/dL and 135 mg/dL | glycemia ([3]; Day 9, 6 h fasting): 125 mg/dl (2×) and 153 mg/dl and 109 mg/dl and 108 mg/dl and 131 mg/dl | glycemia ([3]; Day 12, 6 h fasting): 136 mg/dL and 116 mg/dL and 111 mg/dL and 86 mg/dL and 123 mg/dL and 141 mg/dL | Body weight, Average (Body weight study; Day 0 (start of treatment)): 17.03 g | Body weight, Average (Body weight study; Day 2): 17.33 g | Body weight, Average (Body weight study; Day 5): 16.97 g | Body weight, Average (Body weight study; Day 7): 16.84 g | Body weight, Average (Body weight study; Day 9): 17.35 g | Body weight, Average (Body weight study; Day 12): 17.72 g | variation in body weight during administration (Body weight study): no variations are observed | variation in body weight during administration (Body weight study; listed as tungsten (VI) salt): does not modify | Body weight (Body weight study; Day 0 (start of treatment)): 22.7 g and 15.33 g and 18.21 g and 16.5 g and 13.99 g and 15.45 g | Body weight (Body weight study; Day 2): 22.9 g and 14.84 g and 18.98 g and 17.01 g and 14.18 g and 16.04 g | Body weight (Body weight study; Day 5): 22.61 g and 14.89 g and 18.2 g and 16.61 g and 13.79 g and 15.72 g | Body weight (Body weight study; Day 7): 22.42 g and 15.07 g and 17.81 g and 16.35 g and 13.74 g and 15.66 g | Body weight (Body weight study; Day 9): 22.85 g and 15.56 g and 17.9 g and 16.89 g and 14.5 g and 16.39 g | Body weight (Body weight study; Day 12): 23.15 g and 15.91 g and 18.24 g and 17.19 g and 14.92 g and 16.89 g | circulating insulin levels ([4]; rats with streptozotocin-induced insulinopenia and diabetes, prolonged treatment (10 weeks)): partially recover | percentage of births with respect to the number of positive curettages ([4]; streptozotocin-diabetic females after 10 weeks of treatment, mated with healthy males (non-diabetic 100%)): 66%

CCN(CC)CCOc1ccc(C(=C(Cl)c2ccccc2)c2ccccc2)cc1 [clomiphene citrate]
pregnancy rate [5]: ≤ 50% | restoring ovulation [5]: high percentage

Source: patent US9675638B2, “Use of tungsten (VI) salts for the treatment of female infertility in non-diabetic mammals” (OXOLIFE, S.L., priority 2013, dated 2017)
